Source: ChEMBL document CHEMBL1201862, “PubChem BioAssay data set” (2004)
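These data come from cells grown in 96-well plates and exposed to compound for 48 hours at five concentrations. The concentration for 50% growth inhibition is given as GI50.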 Active and inactive are the calls of the source. Cut-off read from the data, not from the text of the source: active = GI50 up to about 1.1 µM and inactive = higher.

Experiments:
Assay in all cases: DTP human tumour cell line panel, 48 h
[1] = tested on: TK-10
[2] = tested on: ACHN
[3] = tested on: HL-60
[4] = tested on: UACC-257
[5] = tested on: SN12C
[6] = tested on: KM12
[7] = tested on: BT-549
[8] = tested on: CCRF-CEM
[9] = tested on: HCC 2998
[10] = tested on: SNB-19
[11] = tested on: U-251
[12] = tested on: NCI-H460
[13] = tested on: MCF7
[14] = tested on: LOX IMVI
[15] = tested on: NCI/ADR-RES
[16] = tested on: IGROV-1
[17] = tested on: T47D
[18] = tested on: NCI-H23
[19] = tested on: SNB-75
[20] = tested on: UO-31

| Structure (SMILES) | GI50 [1] | GI50 [2] | GI50 [3] | GI50 [4] | GI50 [5] | GI50 [6] | GI50 [7] | GI50 [8] | GI50 [9] | GI50 [10] | GI50 [11] | GI50 [12] | GI50 [13] | GI50 [14] | GI50 [15] | GI50 [16] | GI50 [17] | GI50 [18] | GI50 [19] | GI50 [20] |
| --- | --- | --- | --- | --- | --- | --- | --- | --- | --- | --- | --- | --- | --- | --- | --- | --- | --- | --- | --- | --- |
| c1ccc2c(c1)Nc1ccccc1[P+]21c2ccccc2Nc2ccccc21 | 0.581 µM (active) | 1.86 µM (inactive) | 0.251 µM (active) | 0.214 µM (active) | 0.13 µM (active) | 0.0845 µM (active) | 0.153 µM (active) | 0.158 µM (active) | 0.313 µM (active) | 0.299 µM (active) | 0.23 µM (active) | 0.146 µM (active) | 0.489 µM (active) | 0.587 µM (active) | 69.2 µM (inactive) | 0.27 µM (active) | 0.11 µM (active) | 0.175 µM (active) | 0.0466 µM (active) | 5.46 µM (inactive) |
| COC1=C2C[C@](OC)(C#CC=CC#CC2O)CC1(C)C (stereo not given in full) | > 100 µM (inactive) | > 100 µM (inactive) | 55 µM (inactive) | > 100 µM (inactive) | > 100 µM (inactive) | > 100 µM (inactive) | > 100 µM (inactive) | 34.4 µM (inactive) | 37.3 µM (inactive) | > 100 µM (inactive) | > 100 µM (inactive) | > 100 µM (inactive) | > 100 µM (inactive) | > 100 µM (inactive) | > 100 µM (inactive) | 18.2 µM (inactive) | > 100 µM (inactive) | > 100 µM (inactive) | > 100 µM (inactive) | 28.6 µM (inactive) |
| C=CCOc1ccc(C2(O)c3ccccc3C3=NCCCN32)cc1 (stereo not given) | > 100 µM (inactive) | 41.6 µM (inactive) | 35.7 µM (inactive) | 21.4 µM (inactive) | > 73.6 µM (inactive) | 44.5 µM (inactive) | > 100 µM (inactive) | 38 µM (inactive) | 24.6 µM (inactive) | 47.8 µM (inactive) | 43.2 µM (inactive) | > 100 µM (inactive) | 43.7 µM (inactive) | 48.8 µM (inactive) | > 100 µM (inactive) | 28.6 µM (inactive) | 27.9 µM (inactive) | 60.1 µM (inactive) | 32 µM (inactive) | 51.8 µM (inactive) |
| Nc1nc(NCc2ccccc2)cc(NCc2ccccc2)n1 | 8.02 µM (inactive) | 7.26 µM (inactive) | 37.8 µM (inactive) | 5.69 µM (inactive) | 4.57 µM (inactive) | 4.28 µM (inactive) | 7.55 µM (inactive) | 4.24 µM (inactive) | 8.95 µM (inactive) | 8.39 µM (inactive) | 5.14 µM (inactive) | 4.73 µM (inactive) | 2.59 µM (inactive) | 4.23 µM (inactive) | 3.23 µM (inactive) | 4.44 µM (inactive) | 4.48 µM (inactive) | 5 µM (inactive) | 3.23 µM (inactive) | 6.31 µM (inactive) |
| Nc1cccc2cc(S(=O)(=O)Nc3ccc(C(=O)O)cc3)ccc12 | > 100 µM (inactive) | > 100 µM (inactive) | > 100 µM (inactive) | > 100 µM (inactive) | > 100 µM (inactive) | > 100 µM (inactive) | > 100 µM (inactive) | > 100 µM (inactive) | > 100 µM (inactive) | > 100 µM (inactive) | > 100 µM (inactive) | > 100 µM (inactive) | > 100 µM (inactive) | > 100 µM (inactive) | > 100 µM (inactive) | > 100 µM (inactive) | > 100 µM (inactive) | > 100 µM (inactive) | 98.2 µM (inactive) | > 100 µM (inactive) |
| O=c1c2cc([N+](=O)[O-])ccc2n(Cc2ccccc2)n1Cc1ccccc1 | 22.8 µM (inactive) | 16.2 µM (inactive) | 10.3 µM (inactive) | 10.8 µM (inactive) | 20.5 µM (inactive) | 10.5 µM (inactive) | 15.3 µM (inactive) | 14.7 µM (inactive) | 17.9 µM (inactive) | 29.6 µM (inactive) | 15.1 µM (inactive) | 11.8 µM (inactive) | 14 µM (inactive) | 9.2 µM (inactive) | 11.2 µM (inactive) | 20.8 µM (inactive) | 10.9 µM (inactive) | 13.1 µM (inactive) | 10.4 µM (inactive) | 12.4 µM (inactive) |
| O=C(Nc1ccccn1)c1cc2c(cc1Cl)Sc1nccn1S2(=O)=O | 33.4 µM (inactive) | 32.1 µM (inactive) | 23.9 µM (inactive) | 33.7 µM (inactive) | 36.6 µM (inactive) | 33.6 µM (inactive) | 71.3 µM (inactive) | 22.5 µM (inactive) | 16.1 µM (inactive) | 56.1 µM (inactive) | 44.4 µM (inactive) | 30.1 µM (inactive) | 41.8 µM (inactive) | 26.8 µM (inactive) | 31 µM (inactive) | 23.8 µM (inactive) | 20.7 µM (inactive) | 27.4 µM (inactive) | 33.2 µM (inactive) | 27 µM (inactive) |
| CC1=CC(=O)c2cccc(O)c2C1=O | 2.43 µM (inactive) | 1.78 µM (inactive) | 0.935 µM (active) | 1.79 µM (inactive) | 2.32 µM (inactive) | 12.6 µM (inactive) | 1.75 µM (inactive) | 1.91 µM (inactive) | 8.57 µM (inactive) | 8.07 µM (inactive) | 16.5 µM (inactive) | 5.75 µM (inactive) | 1.99 µM (inactive) | 2.52 µM (inactive) | 1.82 µM (inactive) | 13.2 µM (inactive) | 1.77 µM (inactive) | 2.96 µM (inactive) | 8.73 µM (inactive) | 1.79 µM (inactive) |
| COc1cc(C(c2ccc3c(c2)OCO3)N2C(=O)CCC2C(=O)O)cc(OC)c1OC (stereo not given) | > 100 µM (inactive) | > 100 µM (inactive) | > 100 µM (inactive) | > 100 µM (inactive) | > 100 µM (inactive) | > 100 µM (inactive) | > 100 µM (inactive) | > 100 µM (inactive) | > 100 µM (inactive) | > 100 µM (inactive) | > 100 µM (inactive) | > 100 µM (inactive) | > 100 µM (inactive) | > 100 µM (inactive) | > 100 µM (inactive) | > 100 µM (inactive) | > 100 µM (inactive) | > 100 µM (inactive) | > 100 µM (inactive) | > 100 µM (inactive) |
| CCCCCCc1cc2cc(C(=O)Nc3ccccc3)c(=N)oc2cc1O | 6.78 µM (inactive) | 3.44 µM (inactive) | 4.08 µM (inactive) | 4.63 µM (inactive) | 2.42 µM (inactive) | 2.51 µM (inactive) | 9.25 µM (inactive) | 3.47 µM (inactive) | 3.46 µM (inactive) | 3.33 µM (inactive) | 2.99 µM (inactive) | 3.24 µM (inactive) | 4.35 µM (inactive) | 3.23 µM (inactive) | 3.27 µM (inactive) | 2.92 µM (inactive) | 2.33 µM (inactive) | 2.36 µM (inactive) | > 23 µM (inactive) | 2.82 µM (inactive) |
